Data taken from PMC11255104 (Food Chemistry: X, 2024).

Assay: Pharmacokinetic study in rats after oral administration of MOL extract
Format: in vivo, Sprague-Dawley rats
[1] = male, Sprague-Dawley, rat, plasma, po, 30 g/kg

SMILES | half-life [1] [h] | Cmax [1] [ng/mL] | Tmax [1] [h] | time over which the substance could be detected in plasma (rat plasma, oral MOL extract 30 g/kg) [h]
O=C(/C=C/c1ccc(O)c(O)c1)O[C@@H]1C[C@](O)(C(=O)O)C[C@@H](O)[C@H]1O [Chlorogenic acid] | 5.06 |  |  | 
O=c1c(O[C@@H]2O[C@H](CO)[C@@H](O)[C@H](O)[C@H]2O)c(-c2ccc(O)c(O)c2)oc2cc(O)cc(O)c12 [Isoquercitrin] |  | 643 | 0.24 | ≤ 12
